From patent publication US7538221B2, “Polymorphs of racemic, dextrorotatory, and levorotatory enantioners of 1-cyclopropyl-6-fluoro-8-methoxy-7-(4-amino-3,3-dimethylpiperidin-1-yl)-1,4-dihydro-4-oxo-quinoline-3-carboxylic acid hydrochloride and mesylate salts” (The Company of Wockhardt Limited, priority 2003, dated 2009)
Read-outs that look alike come from different tables or passages of the source.

Experiments:
[1] = Percent relative humidity stability study; format: physicochemical
[2] = Aqueous solubility of salt polymorphs; settings: water, 25 °C, Aqueous Solubility at 25-30° C. (mg/ml)
[3] = solid kept for 20 days in 78% relative humidity

COc1c(N2CCC(N)C(C)(C)C2)c(F)cc2c(=O)c(C(=O)O)cn(C3CC3)c12.Cl (racemic) [(±) A-1, (±)-1-cyclopropyl-6-fluoro-8-methoxy-7-(4-amino-3,3-dimethylpiperidin-1-yl)-1,4-dihydro-4-oxo-quinoline-3-carboxylic acid hydrochloride]
polymorph change on storage (Powder X-ray Diffraction spectrum and aqueous solubility change) [1, 3]: changed to polymorph A-2

COc1c(N2CCC(N)C(C)(C)C2)c(F)cc2c(=O)c(C(=O)O)cn(C3CC3)c12.Cl (racemic) [(±) A-3, (±)-1-cyclopropyl-6-fluoro-8-methoxy-7-(4-amino-3,3-dimethylpiperidin-1-yl)-1,4-dihydro-4-oxo-quinoline-3-carboxylic acid hydrochloride]
polymorph change on storage (Powder X-ray Diffraction spectrum and aqueous solubility change) [1, 3]: changed to polymorph A-2

COc1c(N2CCC(N)C(C)(C)C2)c(F)cc2c(=O)c(C(=O)O)cn(C3CC3)c12.CS(=O)(=O)O (racemic) [(±) B-1, (±)-1-cyclopropyl-6-fluoro-8-methoxy-7-(4-amino-3,3-dimethylpiperidin-1-yl)-1,4-dihydro-4-oxo-quinoline-3-carboxylic acid mesylate]
solubility [2]: 80 to 200 mg/mL

COc1c(N2CC[C@@H](N)C(C)(C)C2)c(F)cc2c(=O)c(C(=O)O)cn(C3CC3)c12.Cl [(+) A-1, R-(+)-1-cyclopropyl-6-fluoro-8-methoxy-7-(4-amino-3,3-dimethylpiperidin-1-yl)-1,4-dihydro-4-oxo-quinoline-3-carboxylic acid hydrochloride]
polymorph change on storage (Powder X-ray Diffraction spectrum and aqueous solubility change) [1, 3]: changed to polymorph A-2

COc1c(N2CC[C@@H](N)C(C)(C)C2)c(F)cc2c(=O)c(C(=O)O)cn(C3CC3)c12.Cl [(+) A-2, R-(+)-1-cyclopropyl-6-fluoro-8-methoxy-7-(4-amino-3,3-dimethylpiperidin-1-yl)-1,4-dihydro-4-oxo-quinoline-3-carboxylic acid hydrochloride]
thermodynamic stability of polymorph ([1]; from percent relative humidity stability study and aqueous solubility data): thermodynamically stable

COc1c(N2CC[C@@H](N)C(C)(C)C2)c(F)cc2c(=O)c(C(=O)O)cn(C3CC3)c12.Cl [(+) A-3, R-(+)-1-cyclopropyl-6-fluoro-8-methoxy-7-(4-amino-3,3-dimethylpiperidin-1-yl)-1,4-dihydro-4-oxo-quinoline-3-carboxylic acid hydrochloride]
polymorph change on storage (Powder X-ray Diffraction spectrum and aqueous solubility change) [1, 3]: changed to polymorph A-2

COc1c(N2CC[C@@H](N)C(C)(C)C2)c(F)cc2c(=O)c(C(=O)O)cn(C3CC3)c12.CS(=O)(=O)O [(+) B-1, R-(+)-1-cyclopropyl-6-fluoro-8-methoxy-7-(4-amino-3,3-dimethylpiperidin-1-yl)-1,4-dihydro-4-oxo-quinoline-3-carboxylic acid mesylate]
solubility [2]: 80 to 200 mg/mL

COc1c(N2CC[C@H](N)C(C)(C)C2)c(F)cc2c(=O)c(C(=O)O)cn(C3CC3)c12.Cl [(−) A-1, S-(−)-1-cyclopropyl-6-fluoro-8-methoxy-7-(4-amino-3,3-dimethylpiperidin-1-yl)-1,4-dihydro-4-oxo-quinoline-3-carboxylic acid hydrochloride]
polymorph change on storage (Powder X-ray Diffraction spectrum and aqueous solubility change) [1]: changed to polymorph A-3

COc1c(N2CC[C@H](N)C(C)(C)C2)c(F)cc2c(=O)c(C(=O)O)cn(C3CC3)c12.Cl [(−) A-2, S-(−)-1-cyclopropyl-6-fluoro-8-methoxy-7-(4-amino-3,3-dimethylpiperidin-1-yl)-1,4-dihydro-4-oxo-quinoline-3-carboxylic acid hydrochloride]
polymorph change on storage (Powder X-ray Diffraction spectrum and aqueous solubility change) [1]: changed to polymorph A-3 | thermodynamic stability of polymorph [1]: thermodynamically stable

COc1c(N2CC[C@H](N)C(C)(C)C2)c(F)cc2c(=O)c(C(=O)O)cn(C3CC3)c12.Cl [(−) A-3, S-(−)-1-cyclopropyl-6-fluoro-8-methoxy-7-(4-amino-3,3-dimethylpiperidin-1-yl)-1,4-dihydro-4-oxo-quinoline-3-carboxylic acid hydrochloride]
thermodynamic stability of polymorph [1]: thermodynamically stable

COc1c(N2CC[C@H](N)C(C)(C)C2)c(F)cc2c(=O)c(C(=O)O)cn(C3CC3)c12.Cl [(−) A-4, S-(−)-1-cyclopropyl-6-fluoro-8-methoxy-7-(4-amino-3,3-dimethylpiperidin-1-yl)-1,4-dihydro-4-oxo-quinoline-3-carboxylic acid hydrochloride]
polymorph change on storage (Powder X-ray Diffraction spectrum and aqueous solubility change) [1]: changed to polymorph A-3
